Results as given in patent publication US12419870B2, “Compositions and methods for immune cell modulation in adoptive immunotherapies” (Fate Therapeutics, Inc., priority 2016, dated 2025).
Counter-ions that a name gives are not always drawn.

Legend:
viable CD8+ population = assay: In vitro T cell culture compound screen, flow cytometry for cells co-expressing CCR7 and CD62L in CD8+ cells; format: cell-based, human; settings: 10 μM, about 6 days; for CD8 Hit: anti-CD3/anti-CD28 beads, hit criteria: Z-score > +2 for percent or relative absolute number of CCR7+CD62L+ cells; for number or ratio of cells co-expressing CCR7 and CD62L: viable CD8+ population
Text: (§1) In Vitro T Cell Culture. Fresh leukopaks (AllCells, Alameda, CA) were obtained from healthy donors, from which T cells were negatively selected using the EasySep Human T Cell Enrichment Kit (Stem Cell Technologies, Vancouver, Canada). The freshly isolated T cells were aliquoted and cryopreserved. On the day the screens were initiated, T cells were thawed and washed into X-Vivo 15 with 5% human AB serum, IL-2, pen/strep, and additional supplements. Cells were dispensed into flat-bottom 384-well plates at 5×10^5 cells/ml with anti-CD3/Anti-CD28 dynabeads (ThermoFisher, Waltham, MA) at a 3:1 bead-to-cell ratio. Individual compounds were added at a final concentration of 10 μM to each well from column 3 to column 22 of each plate. Positive and negative controls were added to additional wells. Cells were incubated for about 6 days at 37 degrees with 5% CO2.
(§2) Flow Cytometry. On Day 6 of culture, cells were stained with a fixable viability marker and fluorophore-conjugated antibodies: CD3, CD4, CD8, CD45RA, CD45RO, CD62L, CCR7, CD27, and CD122 (BD Biosciences, San Jose, CA; and BioLegend, San Diego, CA). Fluorescent absolute counting beads (Spherotech, Lake Forest, IL) were added just prior to acquisition. Data acquisition was performed on a BD Fortessa X-20 (BD Biosciences) and data were analyzed using Treestar software (FlowJo, Ashland, OR) and Spotfire (Tibco, Boston, MA).
(§3) These cells are characterized by expression of CCR7 and CD62L. Therefore, cells co-expressing both of these identifying markers were evaluated. Within the viable CD4+ population and viable CD8+ population, the percent of cells co-expressing CCR7 and CD62L was determined. The expression of either CD62L or CCR7 on T cells, as indicative of the desired T cell subsets, have been described as having favorable functional characteristics for CAR-T cell therapy, and potentially other adoptive T cell therapies.
(§4) The number of events in each of these gates relative to the number of absolute counting beads in each sample was calculated, defining a relative measure of the absolute number of naïve, stem cell memory, or central memory T cells within the CD4+ and/or CD8+ populations. A z-Score relative to the screened compound samples within each 384-well plate was calculated for each of these four values: 1) percent CCR7+CD62L+ in CD4+, 2) percent CCR7+CD62L+ in CD8+, 3) absolute relative number of CCR7+CD62L+ in CD4+, and 4) absolute relative number of CCR7+CD62L+ in CD8+(FIGS. 1A and 1i). Z-scores were also calculated for the percent viability of all cells within each sample and the relative absolute number of cells within each sample. A “Z-Score” is a statistical measurement of a score's relationship to the mean in a group of scores. A Z-score of 0 means the score is the same as the mean. A Z-score can also be positive or negative, indicating whether it is above or below the mean and by how many standard deviations.

viable CD4+ population = assay: In vitro T cell culture compound screen, flow cytometry for cells co-expressing CCR7 and CD62L in CD4+ cells; format: cell-based, human; settings: 10 μM, about 6 days; for CD4 Hit: anti-CD3/anti-CD28 beads, hit criteria: Z-score > +2 for percent or relative absolute number of CCR7+CD62L+ cells; for number or ratio of cells co-expressing CCR7 and CD62L: viable CD4+ population
Text: as §1, §2, §3, §4

K562-CD19 = assay: Secondary tumor rechallenge of mice that survived primary tumor challenge; format: in vivo, NSG mice; settings: 21 day post challenge with secondary tumor
CD8 T cells = assay: CD27 cell surface expression on CAR-transduced CD8 T cells by flow cytometry; format: cell-based, human; settings: 20 nM rapa, 10 μM dmPGE2 or both; day 8; two donors; relative to vehicle (DMSO)
Procedure: (§5) In order to perform these studies, isolated CD8 T cells were activated in bulk on day 0 using CTS (Cell Therapy Systems) Dynabeads™ CD3/CD28 (Thermo Fisher Scientific, Waltham, MA) in T cell media supplemented with IL-2. On day 1, cells were transduced with the CAR Construct 1 shown in FIG. 2 and cell density was adjusted to 0.5×10^6/ml and 10^6 cells were seeded into 12 well plates in the presence of vehicle, 20 nM rapa, 10 μM dmPGE2 or both compounds at the same concentrations. On day 4, cells were transferred into 6-well plates and 2 ml of media was added to each well. On day 6 another 2 ml of media was added to each well. On day 8, cells were analyzed on a flow cytometer for cell surface expression of CD27.

CD8+ T-cells [1] = assay: Genome-wide expression on Human Transcriptome Array microarray chips; settings: 20 nM rapa, 10 μM dmPGE2 or both
Procedure: as §5

Nalm-6-luc = assay: In vivo tumor clearance by compound-treated CAR-T cells in tumor-bearing NSG mice; settings: 0.2×10^6 CD4 and CD8 CAR-T cells 1:1, retroorbital, one week after tumor injection
Procedure: CAR-T cells were generated from CD4+ and CD8+ T cells that were separately activated and expanded in vitro. The cells were transduced with the CAR-2 construct (FIG. 2) one day after activation and then replated into 24-well GREX plates with or without the compounds. Half the media was replaced every two days thereafter until harvest one week post-activation. One week after tumor injection, the NSG mice were treated with 0.2×10^6 CD4 and CD8 CAR-T cells mixed at a 1:1 ratio via retroorbital injection. The mice were imaged periodically to determine tumor burden.

CD8 CAR-T cells = assay: Exhaustion marker (PD-1, Tim-3) expression on CAR-T cells by flow cytometry; format: cell-based, human; settings: 20 nM rapa, 10 μM dmPGE2 or both; two donors; relative to vehicle
Text: T cell dysfunction due to ‘exhaustion’ is a state that can preclude adequate control of cancer or infection.

CD8+ T-cells [2] = assay: Gene panel expression changes on Affymetrix human transcriptome arrays; format: cell-based; settings: fold change relative to vehicle treatment
Procedure: In order to perform these studies, isolated CD8 T cells were activated in bulk on day 0 using CTS (Cell Therapy Systems) Dynabeads™ CD3/CD28 (Thermo Fisher Scientific, Waltham, MA) in T cell media supplemented with IL-2. On day 1, cells were transduced with the CAR Construct 1 shown in FIG. 2 and cell density was adjusted to 0.5×10^6/ml and 10^6 cells were seeded into 12 well plates in the presence of vehicle, 20 nM rapa, 10 μM dmPGE2 or both compounds at the same concentrations. On day 4, cells were transferred into 6-well plates and 2 ml of media was added to each well. On day 6 another 2 ml of media was added to each well.
The RNA was analyzed on Affymetrix human transcriptome arrays and fold changes (relative to vehicle treatment) of the genes in the panel were determined.

Nalm6 tumor cells = assay: In vitro serial killing assay of CAR-T cells co-cultured with tumor cells; format: cell-based, human; settings: three rounds of in vitro killing
Text: An in vitro serial killing assay, where CAR-T cells are allowed to “clear” tumor cells in vitro over multiple rounds, is a model that can assess CAR-T expansion in the presence of tumor cells that express the antigen recognized by the CAR. […] After thawing, the CAR-T cells were co-cultured with Nalm6 tumor cells that express endogenous CD19 and transgenic mKate2, a far-red fluorescent protein. Expression of eGFP in the CAR-T cells and mKate2 in the Nalm6 target cells allows easy and reliable identification and counting of both cell types in the serial killing assay. Prior to starting each round of killing, cell numbers were adjusted so that the same ratio of CAR-T cell to Nalm6 target cell was maintained across the CAR-T cell cultures generated from different compound treatments.

| Compound | CD8 Hit (viable CD8+ population) | CD4 Hit (viable CD4+ population) | number or ratio of cells co-expressing CCR7 and CD62L (viable CD8+ population) | other results |
| --- | --- | --- | --- | --- |
| Oc1cccc(-c2nc(N3CCOCC3)c3oc4ncccc4c3n2)c1 [PI-103] | CD8 | CD4 | – | mice with no detectable tumor (K562-CD19): 60% |
| CCCc1c(-c2ccc(O)cc2)nn(-c2ccc(O)cc2)c1-c1ccc(O)cc1 [1,3,5-tris(4-hydroxyphenyl)-4-propyl-1H-pyrazole] | – | CD4 | increased | – |
| CO[C@H]1C[C@@H]2CC[C@@H](C)[C@@](O)(O2)C(=O)C(=O)N2CCCC[C@H]2C(=O)O[C@H]([C@H](C)C[C@@H]2CC[C@@H](O)[C@H](OC)C2)CC(=O)[C@H](C)/C=C(\C)[C@@H](O)[C@@H](OC)C(=O)[C@H](C)C[C@H](C)/C=C/C=C/C=C/1C [rapamycin] | – | – | – | CD27 expression, relative MFI (vehicle defined as 1) (CD8 T cells): approximately 2 fold; total number of genes down-regulated more than 2 fold compared to vehicle control (CD8+ T-cells [1]): 284; total number of genes up-regulated more than 2 fold compared to vehicle control (CD8+ T-cells [1]): 215 |
| Diethylenetriaminepentaacetic acid, penta sodium | CD8 | CD4 | increased | number or ratio of cells co-expressing CCR7 and CD62L (viable CD4+ population): increased |
| Oc1c(Cl)cc(Cl)c2cccnc12 [8-Quinolinol,5,7-dichloro-] | CD8 | CD4 | increased | number or ratio of cells co-expressing CCR7 and CD62L (viable CD4+ population): increased |
| C=CC1=C(C)c2cc3[nH]c(cc4nc(cc5[nH]c(cc1n2)c(C)c5CCC(=O)O)C(CCC(=O)O)=C4C)c(C)c3C=C [Protoporphyrin IX disodium] | – | CD4 | increased | – |
| C=CCc1cccc(/C=N/NC(=O)CN2CCN(Cc3ccccc3)CC2)c1O [PAC-1] | – | CD4 | increased | – |
| CC(C)(C)c1ccc(C(O)CCCN2CCC(C(O)(c3ccccc3)c3ccccc3)CC2)cc1 (centres unmarked) [Terfenadine] | – | CD4 | increased | – |
| N.S=C(S)N1CCCC1 [1-Pyrrolidinecarbodithioic acid, ammonium salt] | – | CD4 | increased | – |
| Sc1ncnc2nc[nH]c12 [6-Mercaptopurine] | CD8 | CD4 | increased | number or ratio of cells co-expressing CCR7 and CD62L (viable CD4+ population): increased |
| CN(C)c1ccc(C=C2C(=O)Nc3ccccc32)cc1 [SU 4312] | CD8 | – | increased | – |
| CCC(CO)Nc1nc(NCc2ccccc2)c2ncn(C(C)C)c2n1 (stereo in doubt) [Roscovitine, (S)-Isomer] | – | CD4 | increased | – |
| C[C@]12CC[C@@H]3c4ccc(O)cc4C[C@@H](CCCCCCCCC[S+]([O-])CCCC(F)(F)C(F)(F)F)[C@H]3[C@@H]1CC[C@@H]2O (some centres unmarked) [Fulvestrant] | CD8 | – | increased | – |
| C/C=C(/C)C(=O)O[C@H]1C(C)=C2[C@H]([C@@H]1OC(=O)CCCCCCC)[C@@](C)(OC(C)=O)C[C@H](OC(=O)CCC)[C@@]1(O)[C@H]2OC(=O)[C@@]1(C)O [Thapsigargin] | CD8 | – | increased | – |
| Nc1cccc(-c2cc3c(Oc4cccc(O)c4)ncnc3[nH]2)c1 [TWS119] | – | – | – | tumor clearance / tumor control by treated CAR-T cells (Nalm-6-luc): minimal tumor control |
| CCCc1nc2c(C)cc(-c3nc4ccccc4n3C)cc2n1Cc1ccc(-c2ccccc2C(=O)O)cc1 [Telmisartan] | – | CD4 | increased | – |
| CC(C)C1CCC2(CO2)C2C(=O)OCC(C(=O)O)=CC12 (centres unmarked) [Heptelidic acid] | CD8 | CD4 | increased | number or ratio of cells co-expressing CCR7 and CD62L (viable CD4+ population): increased |
| CN[C@H]1CC[C@@H](c2ccc(Cl)c(Cl)c2)c2ccccc21 [Sertraline] | CD8 | CD4 | – | – |
| CC[n+]1c(/C=C/C=C2/N(C)c3ccccc3C2(C)C)sc2ccccc21.[I-] [AC-93253 iodide] | CD8 | CD4 | increased | number or ratio of cells co-expressing CCR7 and CD62L (viable CD4+ population): increased |
| COc1cc2nc(N3CCCN(C)CC3)nc(NC3CCN(Cc4ccccc4)CC3)c2cc1OC [BIX01294] | – | CD4 | increased | – |
| CCCCC(C)(C)[C@H](O)/C=C/[C@H]1[C@H](O)CC(=O)[C@@H]1C/C=C\CCCC(=O)O [dmPGE2, 16,16-dimethyl Prostaglandin E2] | – | – | – | CD27 expression, relative MFI (vehicle defined as 1) (CD8 T cells): no increase; PD-1 expression (CD8 CAR-T cells): decreased; Tim-3 expression (CD8 CAR-T cells): no effect; BLIMP-1 expression (CD8+ T-cells [2]): slightly upregulated; clearing of target cells over time by previously treated CAR-T cells (Nalm6 tumor cells): successfully cleared target cells; total number of genes down-regulated more than 2 fold compared to vehicle control (CD8+ T-cells [1]): 38; total number of genes up-regulated more than 2 fold compared to vehicle control (CD8+ T-cells [1]): 71 |
| NC1CCN(c2nc3c(cc2F)c(=O)c(C(=O)O)cn3-c2ccc(F)cc2F)C1 (centres unmarked) [Tosufloxacin hydrochloride] | – | CD4 | increased | – |
| Oc1c(I)cc(Cl)c2cccnc12 [8-Quinolinol,5-chloro-7-iodo-] | CD8 | CD4 | increased | number or ratio of cells co-expressing CCR7 and CD62L (viable CD4+ population): increased |
| CC[N+](C)(C)c1cccc(O)c1 [Edrophonium chloride] | CD8 | – | increased | – |
| COc1ccc(-c2cc3nccn3c(Nc3ncccc3C(N)=O)n2)cc1OC [BAY 61-3606] | – | CD4 | increased | – |
| O=C(N/N=C/c1ccc([N+](=O)[O-])o1)c1ccc(O)cc1 [Nifuroxazide] | CD8 | – | increased | – |
| 2-Naphthacenecarboxamide, 7-chloro-4-(dimethylamino)-1,4,4a,5,5a,6,11,12a-octahy | CD8 | – | increased | – |
| O=C(O)Cc1cc(I)c(Oc2ccc(O)c(I)c2)c(I)c1 [Tiratricol] | CD8 | CD4 | increased | number or ratio of cells co-expressing CCR7 and CD62L (viable CD4+ population): increased |
| Nc1ncn([C@@H]2O[C@H](CO)[C@@H](O)[C@H]2O)c(=O)n1 [5-Azacytidine] | CD8 | CD4 | increased | number or ratio of cells co-expressing CCR7 and CD62L (viable CD4+ population): increased |
| N#CC(=C(/N)Sc1ccccc1N)/C(C#N)=C(\N)Sc1ccccc1N [U0126] | – | CD4 | increased | tumor clearance / tumor control by treated CAR-T cells (Nalm-6-luc): minimal tumor control |
